Data reported in the supplement of paper PMC10307832.

Assays:
Experiment in all cases: relative viability (nuclei count vs DMSO), 5 days (fraction); higher = more cells survive
SGI-1776 + OSI-027 = compound: CN1CCC(CNc2ccc3ncc(-c4cccc(OC(F)(F)F)c4)n3n2)CC1 [SGI-1776] + COc1cccc2cc(-c3nc([C@H]4CC[C@H](C(=O)O)CC4)n4ncnc(N)c34)[nH]c12 [OSI-027] (partner 0.5 µM)
Summary of the method: (§1)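 Medians of duplicate plates are given as relative viability. That measure is the nuclei count in treated wells divided by the count in vehicle wells. Counts were taken on 4× images of lung cancer cell lines in 1536-well plates, 5 days after pin-tool dosing the day after seeding with one drug alone or a fixed anchor-drug dose plus five library-drug doses (not always all listed) in √10 steps.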

Entinostat + Palbociclib = compound: Nc1ccccc1NC(=O)c1ccc(CNC(=O)OCc2cccnc2)cc1 [Entinostat] + CC(=O)c1c(C)c2cnc(Nc3ccc(N4CCNCC4)cn3)nc2n(C2CCCC2)c1=O [Palbociclib] (partner 0.5 µM)
Summary of the method: as §1

Entinostat + Foretinib = compound: Nc1ccccc1NC(=O)c1ccc(CNC(=O)OCc2cccnc2)cc1 [Entinostat] + COc1cc2c(Oc3ccc(NC(=O)C4(C(=O)Nc5ccc(F)cc5)CC4)cc3F)ccnc2cc1OCCCN1CCOCC1 [Foretinib] (partner 0.25 µM)
Summary of the method: as §1

Entinostat + Pictilisib = compound: Nc1ccccc1NC(=O)c1ccc(CNC(=O)OCc2cccnc2)cc1 [Entinostat] + CS(=O)(=O)N1CCN(Cc2cc3nc(-c4cccc5[nH]ncc45)nc(N4CCOCC4)c3s2)CC1 [Pictilisib] (partner 1 µM)
Summary of the method: as §1

Cell Line	relative viability (SGI-1776 + OSI-027; first compound 0.08 µM)	relative viability (SGI-1776 + OSI-027; first compound 0.8 µM)	relative viability (SGI-1776 + OSI-027; first compound 2.53 µM)	relative viability (SGI-1776 + OSI-027; first compound 8 µM)	relative viability (Entinostat + Palbociclib; first compound 0.02 µM)	relative viability (Entinostat + Palbociclib; first compound 0.06325 µM)	relative viability (Entinostat + Palbociclib; first compound 0.2 µM)	relative viability (Entinostat + Palbociclib; first compound 0.6325 µM)	relative viability (Entinostat + Palbociclib; first compound 2 µM)	relative viability (Entinostat + Foretinib; first compound 0.02 µM)	relative viability (Entinostat + Foretinib; first compound 0.06325 µM)	relative viability (Entinostat + Foretinib; first compound 0.2 µM)	relative viability (Entinostat + Foretinib; first compound 0.6325 µM)	relative viability (Entinostat + Foretinib; first compound 2 µM)	relative viability (Entinostat + Pictilisib; first compound 0.02 µM)	relative viability (Entinostat + Pictilisib; first compound 0.06325 µM)	relative viability (Entinostat + Pictilisib; first compound 0.2 µM)	relative viability (Entinostat + Pictilisib; first compound 0.6325 µM)	relative viability (Entinostat + Pictilisib; first compound 2 µM)
201T	0.823	0.703	0.708	0.6	0.384	0.376	0.426	0.378	0.373	1.12	1.22	1.2	0.958	0.453	0.708	0.662	0.625	0.532	0.467
A549										1.01	0.942	0.878	0.757	0.288	0.551	0.555	0.451	0.364	0.2
A-427	0.543	0.481	0.479	0.357	0.555	0.537	0.463	0.401	0.368	1.2	1.16	1.06	1	0.811	0.67	0.837	0.65	0.757	0.589
ABC-1	0.401	0.552	0.472	0.407	0.591	0.788	0.61	0.658	0.41	1.05	1.19	0.906	0.805	0.545	0.668	1.07	0.7	0.452	0.279
BEN	0.316	0.289	0.264	0.323	0.543	0.466	0.457	0.454	0.4	0.782	0.756	0.465	0.498	0.283	0.594	0.673	0.453	0.282	0.188
CAL-12T	0.771	0.592	0.652	0.481	0.516	0.602	0.637	0.384	0.266	1.17	1.14	1.27	1.07	1.01	0.537	0.546	0.544	0.303	0.323
COR-L23	0.781	0.87	0.74	0.582	0.31	0.249	0.253	0.139	0.0938	0.919	0.857	0.943	0.495	0.308	0.714	0.728	0.588	0.257	0.141
COR-L 105	0.746	0.716	0.658	0.38	0.376	0.406	0.38	0.43	0.355	1.19	0.997	1.14	0.677	0.548	0.414	0.425	0.38	0.346	0.262
Calu-6										0.889	0.849	0.873	0.565	0.513	0.814	0.934	0.864	0.615	0.383
ChaGo-K-1	0.619	0.61	0.39	0.413	0.976	0.931	0.989	0.852	0.75	1.06	0.914	0.893	0.842	0.673	0.917	0.645	0.68	0.411	0.471
EBC-1										0.0998	0.0994	0.101	0.0814	0.0684	0.313	0.363	0.193	0.12	0.0976
EKVX	0.707	0.736	0.755	0.612	0.467	0.434	0.343	0.326	0.242	0.879	0.996	0.863	0.572	0.409	0.441	0.517	0.36	0.298	0.217
EMC-BAC-2	0.355	0.371	0.363	0.319	0.532	0.468	0.443	0.388	0.294	1.03	0.938	0.814	0.608	0.513	0.579	0.595	0.628	0.352	0.289
EPLC-272H	0.32	0.249	0.306	0.274	0.406	0.334	0.364	0.282	0.215	0.684	0.783	0.512	0.243	0.223	0.419	0.37	0.327	0.219	0.254
H3255	0.65	0.643	0.651	0.555	0.339	0.345	0.348	0.301	0.27	0.889	0.89	0.639	0.567	0.381	0.475	0.395	0.301	0.202	0.168
HARA	0.681	0.638	0.64	0.412	0.301	0.298	0.258	0.272	0.266	0.903	0.913	1.01	0.341	0.416	0.428	0.533	0.442	0.368	0.219
HCC-15	0.655	0.651	0.559	0.437	0.734	0.674	0.572	0.454	0.273	0.984	0.886	0.802	0.592	0.331	0.714	0.663	0.626	0.188	0.266
HCC-44	0.672	0.493	0.407	0.28	1.01	0.833	0.903	0.84	0.826						0.641	0.644	0.392	0.176	0.417
HCC-78	0.407	0.418	0.385	0.398	0.523	0.462	0.491	0.468	0.531	0.559	0.479	0.39	0.297	0.264	0.212	0.194	0.178	0.108	0.128
HCC-366	0.837	0.866	1.02	0.667	0.344	0.348	0.133	0.111	0.0439	0.994	0.992	0.685	0.265	0.0997	0.163	0.232	0.168	0.194	0.082

Cell Line	relative viability (SGI-1776 + OSI-027; first compound 0.08 µM)	relative viability (SGI-1776 + OSI-027; first compound 0.8 µM)	relative viability (SGI-1776 + OSI-027; first compound 2.53 µM)	relative viability (SGI-1776 + OSI-027; first compound 8 µM)	relative viability (Entinostat + Palbociclib; first compound 0.02 µM)	relative viability (Entinostat + Palbociclib; first compound 0.06325 µM)	relative viability (Entinostat + Palbociclib; first compound 0.2 µM)	relative viability (Entinostat + Palbociclib; first compound 0.6325 µM)	relative viability (Entinostat + Palbociclib; first compound 2 µM)	relative viability (Entinostat + Foretinib; first compound 0.02 µM)	relative viability (Entinostat + Foretinib; first compound 0.06325 µM)	relative viability (Entinostat + Foretinib; first compound 0.2 µM)	relative viability (Entinostat + Foretinib; first compound 0.6325 µM)	relative viability (Entinostat + Foretinib; first compound 2 µM)	relative viability (Entinostat + Pictilisib; first compound 0.02 µM)	relative viability (Entinostat + Pictilisib; first compound 0.06325 µM)	relative viability (Entinostat + Pictilisib; first compound 0.2 µM)	relative viability (Entinostat + Pictilisib; first compound 0.6325 µM)	relative viability (Entinostat + Pictilisib; first compound 2 µM)
HCC-827	0.804	0.843	0.793	0.602	0.407	0.436	0.336	0.311	0.184	0.954	0.962	0.83	0.737	0.355	1.02	0.774	0.683	0.754	0.478
HOP-62	0.882	0.866	0.802	0.81	0.409	0.44	0.45	0.195	0.162	1.11	0.983	0.995	0.609	0.356	0.578	0.743	0.603	0.139	0.0745
IA-LM										1.13	1.22	1.43	1.05	0.764	0.391	0.43	0.508	0.311	0.133
LC-2-ad	0.918	0.806	0.973	0.548	0.473	0.412	0.417	0.421	0.323	0.907	0.905	0.723	0.512	0.338	0.44	0.5	0.431	0.126	0.124
LCLC-97TM1	0.597	0.487	0.59	0.487	0.21	0.213	0.236	0.277	0.18	1.05	0.934	1	0.995	0.844	0.196	0.193	0.166	0.104	0.122
LCLC-103H	0.481	0.446	0.457	0.425	0.526	0.438	0.406	0.429	0.427	0.802	0.66	0.612	0.666	0.384	0.611	0.603	0.636	0.452	0.479
LK-2	0.247	0.216	0.201	0.159	0.77	0.673	0.651	0.496	0.211	1.02	1.31	0.905	0.683	0.543	0.62	0.486	0.529	0.518	0.285
LOU-NH91	0.777	0.726	0.826	0.56	0.466	0.581	0.532	0.531	0.508	0.937	0.984	0.919	0.844	0.779	0.522	0.529	0.549	0.452	0.394
LU99A	0.294	0.286	0.303	0.262	0.419	0.416	0.376	0.388	0.302	0.773	0.739	0.76	0.579	0.442	0.289	0.326	0.334	0.271	0.231
LXF-289	0.794	0.843	0.764	0.707	0.577	0.606	0.575	0.509	0.514	1.01	0.916	0.88	0.825	0.59	0.78	0.81	0.657	0.393	0.191
NCI-H522	0.713	0.811	0.749	0.569	1.01	1.15	1.13	1.01	0.97										
NCI-H596	0.809	0.761	0.682	0.467						0.851	0.727	0.913	0.698	0.655	0.401	0.4	0.372	0.333	0.348
NCI-H1299										1.07	1.07	1.01	0.855	0.879	0.793	0.848	0.63	0.532	0.394
NCI-H1563	0.749	0.8	0.674	0.614						0.543	0.918	0.823	0.77	0.609	0.721	0.639	0.617	0.684	0.646
NCI-H1623	0.459	0.416	0.502	0.427						0.862	0.84	0.766	0.512	0.375					
NCI-H1648	0.233	0.273	0.249	0.238	0.297	0.25	0.259	0.247	0.258										
NCI-H1703										0.322	0.346	0.49	0.812	0.688	0.263	0.274	0.314	0.384	0.304
NCI-H1792	0.764	0.68	0.688	0.514	0.709	0.745	0.723	0.626	0.523						0.245	0.239	0.164	0.0977	0.0839
NCI-H2342	0.671	0.671	0.552	0.622	0.528	0.523	0.53	0.49	0.485	1.04	1.22	0.947	0.924	0.787					
SW 900	0.56	0.689	0.564	0.399	0.547	0.582	0.576	0.509	0.344	0.946	0.878	1.04	0.674	0.533					
